Values of other authors, collected in publication PMC12583704 (Signal Transduction and Targeted Therapy, 2025).

Columns and labels:
CYP2C19 = tested on: CYP2C19; design: method as in HQP1351 SJ0003 Protocol; details: 0 - 50 μM; ref HQP1351 SJ0003 Protocol; cited from earlier work
[1] = design: method as in HQP1351 SJ0003 Protocol; details: ref HQP1351 SJ0003 Protocol; cited from earlier work
[2] = tested on: Chinese hamster lung fibroblasts; design: method as in HQP1351 SJ0003 Protocol; details: ref HQP1351 SJ0003 Protocol; cited from earlier work

In the case of Cc1ccc(C(=O)Nc2ccc(CN3CCN(C)CC3)c(C(F)(F)F)c2)cc1C#Cc1cnc2[nH]ncc2c1 [Olverembatinib, 3-[(1H-pyrazolo[3,4-b]pyridin-5-yl)ethynyl]-4-methyl-N-{4-[(4-methylpiperazin-1-yl)methyl]-3-(trifluoromethyl)phenyl]benzamide], the “inhibitory effect on CYP2C19” value (CYP2C19) is listed as “certain inhibitory effect”, the “difference in binding rate to plasma protein at different concentrations or among species” value [1] is listed as “No significant difference” and the teratogenicity on chromosomes [2] is listed as “no teratogenicity”.
